Data set [1] concerns mRNA. Briefly: Stability of mRNA LNPs with DTPA and palmatine chloride (main peak purity). It counts as physicochemical. The conditions noted are these: 0.20 mg/ml mRNA LNP, 1 mM DTPA, palmatine chloride 0.5, 1 or 2 mM, up to 5 months. As for the experimental part:
With reference to FIG. 12, studies were performed to determine the stability of lipid nanoparticles encapsulating mRNA containing the chelator DTPA and varying concentrations of palmatine chloride. 0.20 mg/ml samples of lipid nanoparticles encapsulating mRNA and 1 mM DTPA were incubated with palmatine chloride (0 mM, 0.5 mM, 1 mM, or 2 mM). Measurements of main peak (mRNA) purity were taken at time points up to 5 months.

Data set [2] deals with mRNA. As to the kind of experiment: Differential scanning microcalorimetry of mRNA with palmatine chloride. Format: physicochemical. The conditions noted are these: increasing palmatine chloride up to 500 μM, 20 mM Tris, 8% sucrose. As for the experimental part: With reference to FIG. 9, differential scanning microcalorimetry thermograms were obtained of lipid nanoparticles encapsulating mRNA and containing increasing concentrations of palmatine chloride (left-most trace—free mRNA, right-most trace—500 μM palmatine). The experiments were performed in 20 mM Tris, 8% sucrose buffer.

Data set [3] deals with mRNA. Briefly: Long-term stability of mRNA with 2 mM palmatine chloride (intact mRNA by chromatography). Format: physicochemical. The conditions noted are these: for degradation rate (% per month) / greater purity than unstabilized composition: 0.20 mg/ml mRNA + 2 mM palmatine chloride. The protocol:
The degradation rate (% per month) of the stabilized composition was 1.8% as compared to […] for the unstabilized composition. […] The degradation rate (% per month) of the stabilized composition was 8.6% as compared to 38% for the unstabilized composition. […] With reference to FIGS. 10A and 10B, studies were performed to determine the long-term effect of palmatine chloride on thermal stability of mRNA. Aliquots of mRNA solution were mixed with 2 mM palmatine chloride and were incubated for the indicated periods of time at 5° C. (FIG. 10A) and 25° C. (FIG. 10B). The percentage of remaining intact mRNA was quantified using chromatography. The dashed line traces represent mRNA-only samples. The solid line traces represent mRNA samples containing palmatine chloride.

Data set [4] relates to mRNA. As to the kind of experiment: mRNA purity of three month, 25° C. stability samples of mRNA LNPs. Format: physicochemical. The conditions noted are these: mRNA LNPs containing palmatine at varying concentrations, 3 months at 25° C.
The nature of data set [5]: Immunogenicity of mRNA LNP stability samples in vivo (serum antibody titers). The arrangement: species or system BALB/c mice. The conditions noted are these: three month, 25° C. stability samples of mRNA LNPs containing palmatine, mice. The protocol:
Experiments were performed to (i) evaluate immunogenicity of mRNA LNPs containing palmatine or berberine at varying concentrations as compared to non-stabilized control mRNA LNPs. BALB/c mice (N=210) are injected with a mRNA LNP stabilized with varying concentrations of palmatine or berberine (e.g., 0, 0.5 mM, 0.75 mM, 1 mM, 2 mM, 5 mM, or 10 mM). Various dose levels (e.g., 2.5 ug/mg; 1.25 ug/mg; or 0.63 ug/mg) are injected into mice intramuscularly on day 1. On day 21, immunogenicity is assessed via serum antibody titers against protein encoded by the mRNA. The mice are given a booster injection on day 22, and then immunogenicity is again assessed on day 36. Three month, 25° C. stability samples from mRNA LNPs containing palmatine at varying concentrations, and non-stabilized mRNA LNPs (no palmatine) were tested in vivo as continued immunogenicity monitoring on stability. […] The drop in antibody titers is correlated to a significant drop in mRNA purity.

In data set [6] the test system is mRNA. As to the kind of experiment: mRNA LNP stability as a function of pH and temperature (main peak purity). Format: physicochemical. The conditions noted are these: 1 mM excipient, pH 5.5 to 7.4, 0.8 mg/mL, 1 week at 40° C. or 2 weeks at 25° C. As for the experimental part:
The stability of mRNA LNP formulations was evaluated as a function of pH and temperature in the presence and absence of berberine and palmatine. 1 mM excipients were added in pH conditions 5.5 to 7.4 to evaluate pH impact on mRNA stabilization in mRNA LNPs. For pH between 5.5-6.5, 7 mM citrate and 8% sucrose buffer was used. For pH of 7.4, tris/sucrose buffer was used. The LNP formulations were incubated at 0.8 mg/mL for 1 week at 40° C. or 2 weeks at 25° C., and then main peak purity was measured. Incubation for 1 week at 40° C. or 2 weeks at 25° C. show similar trends. […] See, FIG. 7.

The subject of data set [7] is mRNA. Briefly: mRNA stabilization: main peak purity by RP-HPLC (Example 1). It counts as physicochemical. The conditions noted are these: LNP mRNA 0.2 mg/mL in buffer, T0, 3-day, 7-day (berberine, palmatine); buffered mRNA, 5 days at 50° C. (coralyne, palmatine). The source says:
mRNA purity can be determined by reverse phase high-performance liquid chromatography (RP-HPLC) size based separation. This method can be used to assess mRNA integrity by a length-based gradient RP separation and UV detection of RNA at 260 nm. As used herein “main peak” or “main peak purity” refers to the RP-HPLC signal detected from mRNA that corresponds to the full size mRNA molecule loaded within a given LNP formulation. mRNA purity can also be assessed by fragmentation analysis. Fragmentation analysis (FA) is a method by which nucleic acid (e.g., mRNA) fragments can be analyzed by capillary electrophoresis. Fragmentation analysis involves sizing and quantifying nucleic acids (e.g., mRNA), for example by using an intercalating dye coupled with an LED light source. Such analysis may be completed, for example, with a Fragment Analyzer from Advanced Analytical Technologies, Inc. Berberine USP was combined with an LNP containing mRNA (0.2 mg/ml in buffer) in amounts corresponding to the concentrations reported in FIG. 2. Main peak purity was measured by RP-HPLC at T0, 3-day, and 7-day. See, FIG. 2. Palmatine USP was combined with an LNP containing mRNA (0.2 mg/mL in buffer) in amounts corresponding to the concentrations reported in FIG. 3. Main peak purity was measured by RP-HPLC at T0, 3-day, and 7-day. […] After storage for 5 days at 50° C., main peak purity was measured by RP-HPLC. […]

Data set [8] concerns lipid nanoparticles encapsulating mRNA. Briefly: Permeation of palmatine chloride into lipid nanoparticles encapsulating mRNA. Format: physicochemical. The conditions noted are these: 2 mM palmatine, 1 to 14 days, 5, 15, 25 or 40° C., 20 mM Tris, 8% sucrose. The protocol:
Formulations contain 0.20 mg/ml mRNA DP with 2 mM palmatine chloride. With reference to FIG. 11, studies were performed to determine the effect of time and temperature on diffusion (permeation) of palmatine chloride into lipid nanoparticles encapsulating mRNA. The samples were prepared in 20 mM Tris, 8% sucrose. The lipid nanoparticles encapsulating mRNA were incubated in 2 mM palmatine for 1 to 14 days. Free palmatine was separated from the lipid nanoparticles by gel filtration on 40 kD Zeba cartridges, whereas the concentration of lipid nanoparticle-permeated palmatine was determined by reverse phase chromatography using a Luna C18 column.

The subject of data set [9] is mRNA. As to the kind of experiment: HPLC purity of mRNA stressed at 40° C. for 3 weeks. It counts as physicochemical. The conditions noted are these: ~1 mM berberine. The protocol: HPLC analyses were performed to evaluate the purity of mRNA stressed at elevated temperature (40° C.) for 3 weeks. In the absence of stabilizer, less than 5% of the mRNA (main peak 5.857 min) remained intact. By contrast, in the presence of ˜1 mM berberine, over 22% of the mRNA (main peak 5.857 min) remained intact. […] See, FIG. 5.

For data set [10], the system named is mRNA. As to the kind of experiment: mRNA LNP stability at pH 7.4 as a function of berberine concentration (main peak purity). It counts as physicochemical. The conditions noted are these: 0-1.5 mM berberine, pH 7.4 tris/sucrose, ~0.2 mg/mL, 1 week at 40° C. or 2 weeks at 25° C. As for the experimental part: The stability of mRNA LNP formulations at pH of 7.4 was then further evaluated as a function of berberine concentration. A series of mRNA LNPs were formulated with various levels of berberine (0, 0.2, 0.4, 0.6, 0.8, 1.0, 1.25, 1.5 mM) and stressed in 7.4 pH tris/sucrose buffer at ˜0.2 mg/mL for either 1 week at 40° C. or 2 weeks at 25° C., and then main peak purity was measured. […] In this study, maximal effect occurs in the 1-1.25 mM berberine range. See, FIG. 8.

A further data set relates to mRNA LNPs. As to the kind of experiment: Dynamic light scattering of mRNA LNPs after 40° C. stress. Format: physicochemical. The conditions noted are these: 1 mM berberine, 40° C. stress for 1 week. The source says: Particle size (e.g., particle diameter) can be determined by Dynamic Light Scattering (DLS). DLS measures a hydrodynamic diameter. Smaller particles diffuse more quickly, leading to faster fluctuations in the scattering intensity and shorter decay times for the autocorrelation function. Larger particles diffuse more slowly, leading to slower fluctuations in the scattering intensity and longer decay times in the autocorrelation function. Dynamic light scattering is sensitive to perturbation to the physical integrity of mRNA LNPs. mRNA LNPs were formulated with 1 mM berberine or without berberine and then exposed to 40° C. temperature stress for 1 week. As a control, mRNA LNPs were formulated without berberine. The size distribution of the mRNA LNPs was then analyzed by dynamic light scattering. […] See, FIG. 6.

On to `COc1cc2c(cc1OC)-c1cc3ccc(OC)c(OC)c3c[n+]1CC2` [palmatine], for which the “mRNA stability (main peak purity)” value in the data set with mRNA [1] was “significantly improved”. In the data set with mRNA [2], the “effect of binding on thermal stability of mRNA (DSC thermograms)” value was “increased thermal stability of mRNA”. Further, the “degradation rate (% per month)” value in the data set on mRNA [3] (5° C. over twelve months) turned out to be 1.8 % per month; in the data set with mRNA [3] (25° C. over six months), 8.6 % per month. Also, the “greater purity than unstabilized composition” value in the data set on mRNA [3] (5° C., after ten months) came out at 20%; in the data set with mRNA [3] (25° C., after six months), 35%. For the same compound, in the data set on mRNA [3] (2 mM palmatine chloride, 5° C. and 25° C.), the “mRNA thermal stability in the presence of the compound” value was “significantly improved”. For the same compound, in the data set on mRNA [4], the “mRNA purity versus non-stabilized samples” value is “higher mRNA purity than the non-stabilized”. For the same compound, in data set [5], the “antibody titers versus −70° C. non-stabilized control” value is “more similar antibody titers to the −70 °C control arm”. In addition, the “stabilizing effect across pH range (main peak purity)” value with mRNA [6] is “strong stabilizing effects”. The “effect on mRNA (main peak purity by RP-HPLC)” value in the data set with mRNA [7] is “stabilizing effect”. In data set [8], the “permeated concentration in lipid nanoparticles as a function of temperature” value is reported as “increased permeated palmatine concentration”. Moreover, the “rate of permeation into lipid nanoparticles as a function of temperature” value in data set [8] is recorded as “increased rate of permeation”.

With `COc1ccc2cc3[n+](cc2c1OC)CCc1cc2c(cc1-3)OCO2` [berberine], the “mRNA remaining intact (main peak)” value in the data set on mRNA [9] is “over 22%”. Also, the “dependence of stabilizing effect on concentration” value in the data set on mRNA [10] is listed as “concentration-dependent manner”. Further, in the data set on mRNA LNPs, the “effect on hydrodynamic characteristics of the lipid nanoparticle (size distribution)” value was “no effect on the hydrodynamic characteristics of the lipid nanoparticle”. The “stabilizing effect across pH range (main peak purity)” value in the data set on mRNA [6] is on record as “strong stabilizing effects”. For the same compound, the “effect on mRNA (main peak purity by RP-HPLC)” value with mRNA [7] is on record as “stabilizing effect”.

(Values after patent US20240238211A1, “ISOQUINOLINE-STABILIZED LIPID NANOPARTICLE FORMULATIONS” (ModernaTX, Inc., priority 2021, published 2024).)
